Measurements from paper PMC8467575, “Bacterial-Specific Aggregation and Killing of Immunomodulatory Host Defense Peptides” (Pharmaceuticals, 2021).
Converted amounts (≈) assume the structure as drawn. Read-outs that look alike come from different tables or passages of the source. Where a SMILES comes first, the peptide text is derived from it. Bridges are numbered along the chain shown (N, C = ends).

How the values were obtained:
[1] = test system: DF-1 chicken embryonic fibroblasts; experiment: Cytotoxicity assay (MTS); type: cell-based; details: 100 µM peptide, 24 h, triplicate
Description: (§1) DF-1 chicken embryonic fibroblasts were cultured in DMEM containing 8% FBS and 2% CS. Caco-2 cells were cultured in EMEM containing 20% FBS. Cells in growth phase (~70% confluency) were incubated with a 100 µM concentration of each peptide for 24 h. Cell viability was determined in triplicate by MTS assay using the CellTiter 96® AQueous Cell Proliferation Assay, as per the manufacturer’s protocol.

Caco-2 cells = experiment: Cytotoxicity assay (MTS); type: cell-based, human; details: 100 µM peptide, 24 h, triplicate
Description: as §1

[2] = test system: Caco-2 human colorectal adenocarcinoma cells; experiment: Cellular uptake of TAMRA-labeled peptides (flow cytometry, fluorescence microscopy); type: cell-based; details: 5 h
Description: Caco-2 human colorectal adenocarcinoma cells were cultured to growth phase (~70% confluency) in EMEM containing 20% FBS and were treated with 5 µM of TAMRA-labeled peptides for 5 h. The uptake of fluorescently labeled peptide in Caco-2 human colorectal adenocarcinoma cells was measured by flow cytometry using BD FACS Calibur (BD Biosciences (Franklin Lakes, NJ, USA)) and by fluorescence microscopy.

E. coli = experiment: Bacterial uptake of TAMRA-labeled peptides; type: cell-based, Escherichia coli; details: 5 µM, up to 5 h, log phase culture, fluorescence of free peptide in supernatant, triplicate
Description: (§2) TAMRA-conjugated peptides were used for cellular uptake studies. Liquid cultures of E. coli and Bacillus subtilis at log phase (OD600 ≈ 0.3–0.4) were incubated with TAMRA-labeled peptides (5 µM), and the percentage uptake of peptides was determined in triplicate for 5 h by measuring the fluorescence of free peptide in the supernatant of bacteria at […] wavelengths of 579 and 546 nm. (1) % Uptake=100−Fluorescence of supernatant/Initial fluorescence of sample×100%

Bacillus subtilis = experiment: Bacterial uptake of TAMRA-labeled peptides; type: cell-based; details: 5 µM, up to 5 h, log phase culture, fluorescence of free peptide in supernatant, triplicate
Description: as §2

[3] = test system: E. coli (ATCC 25922GFP) in Caco-2 cells; experiment: Bacterial infection of Caco-2 cells; type: cell-based, Escherichia coli; details: 400,000 CFU/mL GFP-expressing E. coli, 5 µM peptide, 5 h, fluorescence microscopy
Description: Caco-2 cells grown in six-well plates were also infected with E. coli (ATCC 25922GFP) at a CFU of 400,000 cells/mL. Cells were then incubated with 5 µM of TAMRA-labeled peptides for 5 h and were observed under fluorescence microscope for the presence of fluorescent bacteria.

[4] = test system: Escherichia coli ATCC 25922; experiment: microbe, parasite or virus in culture; type: cell-based
Description: (§3) E. coli, S. aureus, and S. enterica were cultured in nutrient broth at 37 °C. Listeria was cultured in brain heart infusion broth at 37 °C. Bacteria at early log phase (OD600 ≈ 0.1) were incubated with the peptides at different concentrations (100–3.12 µM) for 4–6 h. After the incubation period, the bacterial culture medium was diluted at different ratios (1 in 2000–2,000,000) in sterile PBS and was spread on blood agar (BA) plates. BA plates were incubated at 37 °C for 24 h, and the number of colonies formed was counted to determine cell viability.

[5] = test system: Salmonella enterica ATCC 13076; experiment: microbe, parasite or virus in culture; type: cell-based; details: for MIC: read-out: MIC S. enterica
Description: as §3

[6] = test system: Staphylococcus aureus ATCC 25923; experiment: microbe, parasite or virus in culture; type: cell-based
Description: as §3

[7] = test system: Listeria monocytogenes ATCC 19115; type: cell-based
Description: as §3

[8] = test system: chicken red blood cell suspension; experiment: Hemolysis assay; type: cell-based; details: eukaryotic cells (cytotoxicity and hemolysis at 100 µM) versus antibacterial IC50
Description: A chicken red blood cell suspension was purchased from Cedarlane (Burlington, CA). RBCs were incubated with a 100 µM concentration of each peptide at 37 °C for 4 h. Triton-X was used as a positive control to achieve total hemolysis of RBCs. Percentage hemolysis was determined in triplicate by centrifuging down the RBC suspension and by measuring the absorbance of the supernatant at 540 nm. (2) % Hemolysis=Absorbance of sample @540nm /Absorbance of positive control @540nm×100%.

| IC50 ([4]; Escherichia coli, ATCC25922, early log phase (OD600 ≈ 0.1), nutrient broth 37 °C, peptide 100–3.12 µM for 4–6 h, colony count on blood agar after 24 h, read-out: IC50 E. coli) [µM] | IC50 ([5]; Salmonella enterica, ATCC13076, early log phase (OD600 ≈ 0.1), nutrient broth 37 °C, peptide 100–3.12 µM for 4–6 h, colony count on blood agar after 24 h, read-out: IC50 S. enterica) [µM] | MIC ([5]; Salmonella enterica, ATCC13076, early log phase, nutrient broth 37 °C, 4–6 h, colony count on blood agar) [µM] | IC50 ([6]; Staphylococcus aureus, ATCC25923, early log phase (OD600 ≈ 0.1), nutrient broth 37 °C, peptide 100–3.12 µM for 4–6 h, colony count on blood agar after 24 h, read-out: IC50 S. aureus) [µM] | SMILES | viability of DF-1 fibroblasts [1] | viability of Caco-2 intestinal epithelial cells (Caco-2 cells) | % fluorescent cells (cellular uptake) ([2]; Caco-2, 5 µM TAMRA-labeled peptide, flow cytometry) [%] | uptake of fluorescent peptide seen by fluorescence microscopy ([2]; Caco-2, TAMRA-labeled peptide) | uptake of TAMRA-labeled peptide in E. coli (E. coli) | uptake of TAMRA-labeled peptide in B. subtilis (Bacillus subtilis) | reduction of bacterial infection of Caco-2 cells [3] | IC50 ([4]; ATCC 25922) [µM] | MIC E. coli ([4]; ATCC 25922) [µM] | IC50 ([5]; ATCC 13076) [µM] | MIC ([5]; ATCC 13076) [µM] | IC50 ([6]; ATCC 25923) [µM] | MIC S. aureus ([6]; ATCC 25923) [µM] | IC50 [7] [µM] | MIC L. monocytogenes [7] [µM] | nontoxic and hemocompatible concentration as fold of the IC50 of the peptide [8] [fold] |
| --- | --- | --- | --- | --- | --- | --- | --- | --- | --- | --- | --- | --- | --- | --- | --- | --- | --- | --- | --- | --- |
|  |  |  |  | N=C(N)NCCC[C@@H]1NC(=O)[C@H](CCCNC(=N)N)NC(=O)[C@H](CCCNC(=N)N)NC(=O)[C@@H](N)CSSC[C@@H](C(N)=O)NC(=O)[C@H](Cc2c[nH]cn2)NC(=O)[C@@H]2CCCN2C(=O)[C@H](CO)NC(=O)CNC1=O [mCA4-4] (H-CRRRGSPHC-NH2; disulfide 1-9) | did not compromise the viability | did not compromise the viability | 19 | weak fluorescence | taken up well | taken up well | unable to reduce the bacterial burden |  |  |  |  |  |  |  |  |  |
|  |  |  |  | CC[C@H](C)[C@@H]1NC(=O)[C@H](CCCNC(=N)N)NC(=O)[C@H](Cc2ccccc2)NC(=O)[C@H](CCCCN)NC(=O)[C@H](Cc2ccccc2)NC(=O)[C@H](CCCNC(=N)N)NC(=O)[C@@H](N)CSSC[C@@H](C(N)=O)NC(=O)[C@H]([C@@H](C)CC)NC(=O)[C@H](C(C)C)NC1=O [mCA4-5] (H-CRFKFRIVIC-NH2; disulfide 1-10) |  |  |  |  |  |  | actively contained and reduced bacterial infections | 15.1 | 40 (≈ 51.3 µg/mL) | 10.2 | 30 (≈ 38.5 µg/mL) | 4 | 15 (≈ 19.2 µg/mL) | 5.2 | 10 (≈ 12.8 µg/mL) | > 6 |
| 15.2 | 7 | 13.5 (≈ 4.72 µg/mL) | 3.6 | CC1(C)S[C@@H]2[C@H](NC(=O)[C@H](N)c3ccccc3)C(=O)N2[C@H]1C(=O)O [Ampicillin, reference compound] |  |  |  |  |  |  |  |  |  |  |  |  |  |  |  |  |
